Measurements from patent US20260297081A1, “COMPOUNDS AND METHODS OF TREATING CANCERS” (Cullgen Inc., priority 2023, published 2026).
Read-outs that look alike come from different tables or passages of the source.

Columns and labels:
[1] = tested on: MCF7 cells; assay: Anti-proliferation (viability) of MCF7 cells (Table 7, FIG. 2B); assay type: cell-based; details: 3-6 days, 10-point serial dilution, read-out: GI IC50 in MCF-7
[2] = molecular target: CDK4 (Homo sapiens, UniProt P11802+Q16531); assay: CDK4 percentage degradation in Calu-1 cells (Table 6); assay type: cell-based; set-up: Cells that express cyclin D1-3 and CDK4/6 proteins were treated with heterobifunctional compounds; endogenous in cells; host or cells: Calu-1; details: 16 hours; for inhibition at 0.04 µM: 40 nM; for inhibition at 0.2 µM: 200 nM
Method in brief: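 Calu-1 cells exposed to heterobifunctional compounds at 40 nM or 200 nM for 16 h. Cyclin D1 and CDK4 levels measured by Western blot of RIPA lysates (BCA-normalised loading), bands quantified by densitometry and expressed as percentage degradation.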

Sequence of CDK4 (P11802 2-303 limits assumed): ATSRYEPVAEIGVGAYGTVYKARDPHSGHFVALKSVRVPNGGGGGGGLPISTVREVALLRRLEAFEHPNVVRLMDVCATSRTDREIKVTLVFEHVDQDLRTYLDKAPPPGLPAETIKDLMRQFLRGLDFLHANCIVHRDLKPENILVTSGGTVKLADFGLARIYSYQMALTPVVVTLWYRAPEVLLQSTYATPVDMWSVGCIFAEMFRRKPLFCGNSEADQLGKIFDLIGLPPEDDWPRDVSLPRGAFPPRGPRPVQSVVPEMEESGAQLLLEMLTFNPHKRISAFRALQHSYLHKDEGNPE
Sequence of CDK4 (P24385 whole entry partner): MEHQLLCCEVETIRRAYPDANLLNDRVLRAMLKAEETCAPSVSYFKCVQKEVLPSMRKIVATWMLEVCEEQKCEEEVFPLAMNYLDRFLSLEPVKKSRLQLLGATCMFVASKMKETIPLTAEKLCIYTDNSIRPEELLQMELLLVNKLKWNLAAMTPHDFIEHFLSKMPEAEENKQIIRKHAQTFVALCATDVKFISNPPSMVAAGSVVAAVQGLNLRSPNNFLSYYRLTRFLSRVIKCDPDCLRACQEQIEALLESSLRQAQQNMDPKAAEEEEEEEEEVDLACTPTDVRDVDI
Sequence of CDK4 (Q16531 2-1140 limits assumed): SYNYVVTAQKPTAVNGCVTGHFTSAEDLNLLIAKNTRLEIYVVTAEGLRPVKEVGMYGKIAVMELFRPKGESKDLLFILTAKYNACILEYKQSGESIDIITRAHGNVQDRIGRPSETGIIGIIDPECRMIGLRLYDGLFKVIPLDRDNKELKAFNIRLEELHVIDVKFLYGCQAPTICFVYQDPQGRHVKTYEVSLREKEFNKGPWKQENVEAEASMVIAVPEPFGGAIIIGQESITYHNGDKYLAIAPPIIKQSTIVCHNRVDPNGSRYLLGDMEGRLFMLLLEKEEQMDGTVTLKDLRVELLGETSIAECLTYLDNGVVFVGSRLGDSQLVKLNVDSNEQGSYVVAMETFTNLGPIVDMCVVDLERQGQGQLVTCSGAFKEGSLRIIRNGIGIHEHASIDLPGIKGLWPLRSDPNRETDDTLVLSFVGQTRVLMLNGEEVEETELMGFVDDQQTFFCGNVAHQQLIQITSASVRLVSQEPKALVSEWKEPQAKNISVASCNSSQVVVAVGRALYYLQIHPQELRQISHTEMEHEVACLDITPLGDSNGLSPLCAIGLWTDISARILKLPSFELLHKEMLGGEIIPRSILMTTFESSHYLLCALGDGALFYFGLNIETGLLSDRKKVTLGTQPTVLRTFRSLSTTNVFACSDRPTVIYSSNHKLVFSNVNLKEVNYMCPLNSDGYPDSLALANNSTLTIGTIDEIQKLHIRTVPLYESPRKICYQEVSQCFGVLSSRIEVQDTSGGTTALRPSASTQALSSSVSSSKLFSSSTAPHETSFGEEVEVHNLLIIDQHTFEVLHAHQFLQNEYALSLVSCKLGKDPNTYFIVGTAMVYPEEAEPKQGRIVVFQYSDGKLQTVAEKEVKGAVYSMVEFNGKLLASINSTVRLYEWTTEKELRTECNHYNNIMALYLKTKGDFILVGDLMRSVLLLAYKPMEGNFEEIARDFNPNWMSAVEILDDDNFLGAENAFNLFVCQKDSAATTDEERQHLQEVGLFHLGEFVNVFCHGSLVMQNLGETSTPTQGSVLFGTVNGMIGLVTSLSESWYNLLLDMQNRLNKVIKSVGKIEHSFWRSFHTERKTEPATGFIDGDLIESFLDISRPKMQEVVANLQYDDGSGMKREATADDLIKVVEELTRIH

IC50 ([1]; Homo sapiens, MCF7, MCF7 cells) [µM]	inhibition at 0.04 µM [2] [%]	inhibition at 0.2 µM [2] [%]	IC50 ([1]; MCF7 cells) [µM]	SMILES
< 0.05	50 to 80	50 to 80		CNc1ccc(C(=O)Nc2ccc(N(C)C)nn2)c(NC2CC(Cn3cc(CN4CCN(c5ccc(Nc6ncc7c(C)c(C(C)=O)c(=O)n(C8CCCC8)c7n6)nc5)CC4)nn3)C2)n1 (centres unmarked) [CPD-202, 2-((3-((4-((4-(6-((6-acetyl-8-cyclopentyl-5-methyl-7-oxo-7,8-dihydropyrido[2,3-d]pyrimidin-2-yl)amino)pyridin-3-yl)piperazin-1-yl)methyl)-1H-1,2,3-triazol-1-yl)methyl)cyclobutyl)amino)-N-(6-(dimethylamino)pyridazin-3-yl)-6-(methylamino)nicotinamide]
< 0.05	50 to 80	50 to 80		CNc1ccc(C(=O)Nc2ccc(N(C)C)nn2)c(NC2CCN(C(=O)CCN3CCN(c4ccc(Nc5ncc6c(C)c(C(C)=O)c(=O)n(C7CCCC7)c6n5)nc4)CC3)CC2)n1 [CPD-203, 2-((1-(3-(4-(6-((6-acetyl-8-cyclopentyl-5-methyl-7-oxo-7,8-dihydropyrido[2,3-d]pyrimidin-2-yl)amino)pyridin-3-yl)piperazin-1-yl)propanoyl)piperidin-4-yl)amino)-N-(6-(dimethylamino)pyridazin-3-yl)-6-(methylamino)nicotinamide]
< 0.05	50 to 80	50 to 80		CC(=O)c1c(C)c2cnc(Nc3ccc(N4CCN(CC(=O)NCC5CC(Nc6nc(NC(C)C)ccc6C(=O)Nc6cc(C)n(C)n6)C5)CC4)cn3)nc2n(C2CCCC2)c1=O (centres unmarked) [CPD-205, 2-((3-((2-(4-(6-((6-acetyl-8-cyclopentyl-5-methyl-7-oxo-7,8-dihydropyrido[2,3-d]pyrimidin-2-yl)amino)pyridin-3-yl)piperazin-1-yl)acetamido)methyl)cyclobutyl)amino)-N-(1,5-dimethyl-1H-pyrazol-3-yl)-6-(isopropylamino)nicotinamide]
> 0.1	50 to 80	50 to 80		CNc1ccc(C(=O)Nc2cn(C)c(C3CC3)n2)c(NC2CC(NC(=O)CN3CCN(c4ccc(Nc5ncc6c(C)c(C(C)=O)c(=O)n(C7CCCC7)c6n5)nc4)CC3)C2)n1 (centres unmarked) [CPD-217, 2-((3-(2-(4-(6-((6-acetyl-8-cyclopentyl-5-methyl-7-oxo-7,8-dihydropyrido[2,3-d]pyrimidin-2-yl)amino)pyridin-3-yl)piperazin-1-yl)acetamido)cyclobutyl)amino)-N-(2-cyclopropyl-1-methyl-1H-imidazol-4-yl)-6-(methylamino)nicotinamide]
> 0.1	50 to 80	50 to 80		CNc1ccc(C(=O)Nc2ccc(F)c(C)n2)c(NC2CC3(CC(NC(=O)CN4CCN(c5ccc(Nc6ncc7c(C)c(C(C)=O)c(=O)n(C8CCCC8)c7n6)nc5)CC4)C3)C2)n1 (centres unmarked) [CPD-221, 2-((6-(2-(4-(6-((6-acetyl-8-cyclopentyl-5-methyl-7-oxo-7,8-dihydropyrido[2,3-d]pyrimidin-2-yl)amino)pyridin-3-yl)piperazin-1-yl)acetamido)spiro[3.3]heptan-2-yl)amino)-N-(5-fluoro-6-methylpyridin-2-yl)-6-(methylamino)nicotinamide]
0.05 to 0.1	50 to 80	50 to 80		CNc1ccc(C(=O)Nc2ccc(N(C)C)nn2)c(N[C@H]2CC[C@H](NC(=O)CCN3CCN(c4ccc(Nc5ncc6c(C)c(C(C)=O)c(=O)n(C7CCCC7)c6n5)nc4)CC3)CC2)n1 [CPD-223, 2-((trans-4-(3-(4-(6-((6-acetyl-8-cyclopentyl-5-methyl-7-oxo-7,8-dihydropyrido[2,3-d]pyrimidin-2-yl)amino)pyridin-3-yl)piperazin-1-yl)propanamido)cyclohexyl)amino)-N-(6-(dimethylamino)pyridazin-3-yl)-6-(methylamino)nicotinamide]
< 0.05	30 to 50	30 to 50		CNc1ccc(C(=O)Nc2ccc(N(C)C)nn2)c(NC2CC3(C2)CN(C(=O)CC(C)N2CCN(c4ccc(Nc5ncc6c(C)c(C(C)=O)c(=O)n(C7CCCC7)c6n5)nc4)CC2)C3)n1 (centres unmarked) [CPD-224, 2-((2-(3-(4-(6-((6-acetyl-8-cyclopentyl-5-methyl-7-oxo-7,8-dihydropyrido[2,3-d]pyrimidin-2-yl)amino)pyridin-3-yl)piperazin-1-yl)butanoyl)-2-azaspiro[3.3]heptan-6-yl)amino)-N-(6-(dimethylamino)pyridazin-3-yl)-6-(methylamino)nicotinamide]
0.05 to 0.1	30 to 50	50 to 80		[2H]C([2H])([2H])Nc1ccc(C(=O)Nc2cccc(C)n2)c(NC2CC3(CC(NC(=O)CN4CCN(c5ccc(Nc6ncc7c(C)c(C(C)=O)c(=O)n(C8CCCC8)c7n6)nc5)CC4)C3)C2)n1 (centres unmarked) [CPD-232, 2-((6-(2-(4-(6-((6-acetyl-8-cyclopentyl-5-methyl-7-oxo-7,8-dihydropyrido[2,3-d]pyrimidin-2-yl)amino)pyridin-3-yl)piperazin-1-yl)acetamido)spiro[3.3]heptan-2-yl)amino)-6-((methyl-d3)amino)-N-(6-methylpyridin-2-yl)nicotinamide]
> 0.1	50 to 80	50 to 80		[2H]C([2H])([2H])Nc1ccc(C(=O)Nc2cn(C)c(C3CC3)n2)c(NC2CC3(CC(NC(=O)CN4CCN(c5ccc(Nc6ncc7c(C)c(C(C)=O)c(=O)n(C8CCCC8)c7n6)nc5)CC4)C3)C2)n1 (centres unmarked) [CPD-237, 2-((6-(2-(4-(6-((6-acetyl-8-cyclopentyl-5-methyl-7-oxo-7,8-dihydropyrido[2,3-d]pyrimidin-2-yl)amino)pyridin-3-yl)piperazin-1-yl)acetamido)spiro[3.3]heptan-2-yl)amino)-N-(2-cyclopropyl-1-methyl-1H-imidazol-4-yl)-6-((methyl-d3)amino)nicotinamide]
0.05 to 0.1	50 to 80	50 to 80		[2H]C([2H])([2H])Nc1ccc(C(=O)Nc2ccc(N(C)C)nn2)c(NC2CC3(CC(NC(=O)CN4CCN(c5ccc(Nc6ncc7c(C)c(C(C)=O)c(=O)n(C8CCCC8)c7n6)nc5)CC4)C3)C2)n1 (centres unmarked) [CPD-241, 2-((6-(2-(4-(6-((6-acetyl-8-cyclopentyl-5-methyl-7-oxo-7,8-dihydropyrido[2,3-d]pyrimidin-2-yl)amino)pyridin-3-yl)piperazin-1-yl)acetamido)spiro[3.3]heptan-2-yl)amino)-N-(6-(dimethylamino)pyridazin-3-yl)-6-((methyl-d3)amino)nicotinamide]
< 0.05				[2H]C([2H])([2H])Nc1ccc(C(=O)Nc2ccc(N(C)C)nn2)c(NC2CC(NC(=O)CN3CCC4(CCN(c5ccc(Nc6ncc7c(C)c(C(C)=O)c(=O)n(C8CCCC8)c7n6)nc5)C4)C3)C2)n1 (centres unmarked) [CPD-450, 2-((3-(2-(7-(6-((6-acetyl-8-cyclopentyl-5-methyl-7-oxo-7,8-dihydropyrido[2,3-d]pyrimidin-2-yl)amino)pyridin-3-yl)-2,7-diazaspiro[4.4]nonan-2-yl)acetamido)cyclobutyl)amino)-N-(6-(dimethylamino)pyridazin-3-yl)-6-((methyl-d3)amino)nicotinamide]
< 0.05				CC(=O)c1c(C)c2cnc(Nc3ccc(N4CCC5(CC4)CC5C(=O)NC4CC5(C4)CC(Nc4nc(NC(C)C)ccc4C(=O)Nc4cc(C)n(C)n4)C5)cn3)nc2n(C2CCCC2)c1=O (centres unmarked) [CPD-451, 6-(6-((6-acetyl-8-cyclopentyl-5-methyl-7-oxo-7,8-dihydropyrido[2,3-d]pyrimidin-2-yl)amino)pyridin-3-yl)-N-(6-((3-((1,5-dimethyl-1H-pyrazol-3-yl)carbamoyl)-6-(isopropylamino)pyridin-2-yl)amino)spiro[3.3]heptan-2-yl)-6-azaspiro[2.5]octane-1-carboxamide]
< 0.05				CC(=O)c1c(C)c2cnc(Nc3ccc(N4CCN(CC(=O)NC5CC6(C5)CC(Nc5nc(NC(C)C)ccc5C(=O)Nc5cc(C)n(C7CC7)n5)C6)CC4)cn3)nc2n(C2CCCC2)c1=O (centres unmarked) [CPD-452, 2-((6-(2-(4-(6-((6-acetyl-8-cyclopentyl-5-methyl-7-oxo-7,8-dihydropyrido[2,3-d]pyrimidin-2-yl)amino)pyridin-3-yl)piperazin-1-yl)acetamido)spiro[3.31]heptan-2-yl)amino)-N-(1-cyclopropyl-5-methyl-1H-pyrazol-3-yl)-6-(isopropylamino)nicotinamide]
0.05 to 0.1				COc1cccc(NC(=O)c2ccc(NC(C)C)nc2NC2CC3(CC(NC(=O)CN4CCN(c5ccc(Nc6ncc7c(C)c(C(C)=O)c(=O)n(C8CCCC8)c7n6)nc5)CC4)C3)C2)n1 (centres unmarked) [CPD-453, 2-((6-(2-(4-(6-((6-acetyl-8-cyclopentyl-5-methyl-7-oxo-7,8-dihydropyrido[2,3-d]pyrimidin-2-yl)amino)pyridin-3-yl)piperazin-1-yl)acetamido)spiro[3.3]heptan-2-yl)amino)-6-(isopropylamino)-N-(6-methoxypyridin-2-yl)nicotinamide]
			> 0.1	CC(=O)c1c(C)c2cnc(Nc3ccc(N4CCN(C5CCN(C(=O)C6(O)CCC(Nc7nc(NC(C)C)ccc7C(=O)Nc7ccc(N(C)C)nn7)CC6)C5)CC4)cn3)nc2n(C2CCCC2)c1=O (stereo not drawn) [CPD-575, 2-((trans-4-(3-(4-(6-((6-acetyl-8-cyclopentyl-5-methyl-7-oxo-7,8-dihydropyrido[2,3-d]pyrimidin-2-yl)amino)pyridin-3-yl)piperazin-1-yl)pyrrolidine-1-carbonyl)-4-hydroxycyclohexyl)amino)-N-(6-(dimethylamino)pyridazin-3-yl)-6-(isopropylamino)nicotinamide]
